Measurements: patent US20250122225A1, “MASP-2 INHIBITORS AND METHODS OF USE” (Omeros Corporation, priority 2023, published 2025)
Counter-ions that a name gives are not always drawn.

What was measured:
human α-thrombin = molecular target: T1, human α-thrombin (Homo sapiens, UniProt P00734); experiment: Enzymatic assay for thrombin (fluorogenic peptide substrate Boc-VPR-AMC); type: biochemical
T1 construct: enzyme (human α-thrombin (BioPharm® Lab.)) in assay buffer; purchased BioPharm® Lab
Summary of the method: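 Human α-thrombin was run with the fluorogenic substrate Boc-VPR-AMC in 20 mM Hepes pH 7.4, 140 mM NaCl, 0.1% Tween 20 at room temperature for 20 min, then stopped with 0.1 M acetic acid. % activity was normalized to DMSO and no-enzyme controls. Under linear conditions IC50 equalled Ki, except for tight-binding inhibitors.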

MASP-2 (CCP1-CCP2-SP) = molecular target: T2, MASP-2 (CCP1-CCP2-SP) (Homo sapiens, UniProt O00187); experiment: Enzymatic assay for MASP-2 inhibitory activity (fluorogenic substrate); type: biochemical
T2 construct: 15 μL of Enzyme MASP-2 (CCP1-CCP2-SP) in Assay Buffer
Summary of the method: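 MASP-2 (CCP1-CCP2-SP) cleaved a fluorogenic substrate based on the C2 cleavage site in 20 mM HEPES pH 7.4, 140 mM NaCl, 0.1% Tween 20 at room temperature. After 20 min the reaction was stopped with 0.1 M acetic acid and fluorescence read. % activity was normalized to DMSO-only and no-enzyme controls; IC50 taken as Ki.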

T2 sequence (O00187 445-686 limits assumed): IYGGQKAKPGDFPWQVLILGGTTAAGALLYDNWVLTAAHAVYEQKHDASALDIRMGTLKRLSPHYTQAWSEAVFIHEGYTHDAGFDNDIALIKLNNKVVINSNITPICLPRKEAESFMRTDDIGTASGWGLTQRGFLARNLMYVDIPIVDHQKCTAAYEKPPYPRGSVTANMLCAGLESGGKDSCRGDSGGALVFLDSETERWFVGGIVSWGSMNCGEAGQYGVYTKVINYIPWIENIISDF
T2 sequence (O00187 287-444 partner limits assumed): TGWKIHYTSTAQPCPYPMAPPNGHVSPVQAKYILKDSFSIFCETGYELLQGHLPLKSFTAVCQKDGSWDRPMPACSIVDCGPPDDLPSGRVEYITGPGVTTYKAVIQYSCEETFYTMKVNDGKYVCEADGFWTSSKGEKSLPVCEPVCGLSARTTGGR

SMILES | Ki (human α-thrombin) | Ki (MASP-2 (CCP1-CCP2-SP))
Cc1cc(C)cc(CNc2ncc3n(c2=O)[C@H](C(=O)NCc2cc4cnc(C)cc4[nH]2)CC32CC2)c1 [Compound 124, (S)-3′-((3,5-dimethylbenzyl)amino)-N-((6-methyl-1H-pyrrolo[3,2-c]pyridin-2-yl)methyl)-4′-oxo-6′,7′-dihydro-4′H-spiro[cyclopropane-1,8′-pyrrolo[1,2-a]pyrazine]-6′-carboxamide trifluoroacetate] | > 25 µM | < 0.5 µM
O=C(NCc1cc2cnccc2[nH]1)[C@@H]1CC2(CC2)c2cnc(NCc3ccccc3)c(=O)n21 [Compound 125, (S)-N-((1H-pyrrolo[3,2-c]pyridin-2-yl)methyl)-3′-(benzylamino)-4′-oxo-6′,7′-dihydro-4′H-spiro[cyclopropane-1,8′-pyrrolo[1,2-a]pyrazine]-6′-carboxamide] | 2.5 to 10 µM | < 0.5 µM
Cc1cc(C)cc(CNc2ncc3n(c2=O)[C@H](C(=O)NCc2cc4c(s2)CNC4)CC32CC2)c1 [Compound 126, (S)—N-((5,6-dihydro-4H-thieno[2,3-c]pyrrol-2-yl)methyl)-3′-((3,5-dimethylbenzyl)amino)-4′-oxo-6′,7′-dihydro-4′H-spiro[cyclopropane-1,8′-pyrrolo[1,2-a]pyrazine]-6′-carboxamide] | 0.5 to 2.5 µM | < 0.5 µM
O=C(NCc1cc2c(s1)CNC2)[C@@H]1CC2(CC2)c2cnc(NCc3ccccc3)c(=O)n21 [Compound 127, (S)-3′-(benzylamino)-N-((5,6-dihydro-4H-thieno[2,3-c]pyrrol-2-yl)methyl)-4′-oxo-6′,7′-dihydro-4′H-spiro[cyclopropane-1,8′-pyrrolo[1,2-a]pyrazine]-6′-carboxamide trifluoroacetate] | 2.5 to 10 µM | < 0.5 µM
O=C(NCc1cc2cnccc2[nH]1)[C@@H]1CC2(CC2)c2c(Cl)nc(NCc3ccccc3)c(=O)n21 [Compound 128, (S)—N-((1H-pyrrolo[3,2-c]pyridin-2-yl)methyl)-3′-(benzylamino)-1′-chloro-4′-oxo-6′,7′-dihydro-4′H-spiro[cyclopropane-1,8′-pyrrolo[1,2-a]pyrazine]-6′-carboxamide] | 2.5 to 10 µM | < 0.5 µM
CC[C@H]1C[C@@H](C(=O)NCc2cc3cnc(C)cc3[nH]2)n2c1cnc(NCc1cc(C)cc(C)c1)c2=O [Compound 129, (6S,8S)-3-((3,5-dimethylbenzyl)amino)-8-ethyl-N-((6-methyl-1H-pyrrolo[3,2-c]pyridin-2-yl)methyl)-4-oxo-4,6,7,8-tetrahydropyrrolo[1,2-a]pyrazine-6-carboxamide] | 10 to 25 µM | < 0.5 µM
C[C@H]1C[C@@H](C(=O)NCc2cc3cnccc3[nH]2)n2c1c(Cl)nc(NCc1ccccc1)c2=O [Compound 130, (6S,8S)—N-((1H-pyrrolo[3,2-c]pyridin-2-yl)methyl)-3-(benzylamino)-1-chloro-8-methyl-4-oxo-4,6,7,8-tetrahydropyrrolo[1,2-a]pyrazine-6-carboxamide] | > 25 µM | < 0.5 µM
Cc1cc(C)cc(CNc2nc(Cl)c3n(c2=O)[C@H](C(=O)NCc2cc4cnccc4[nH]2)C[C@@H]3C)c1 [Compound 132, (6S,8S)-N-((1H-pyrrolo[3,2-c]pyridin-2-yl)methyl)-1-chloro-3-((3,5-dimethylbenzyl)amino)-8-methyl-4-oxo-4,6,7,8-tetrahydropyrrolo[1,2-a]pyrazine-6-carboxamide] | > 25 µM | < 0.5 µM
O=C(NCc1cc2cnccc2[nH]1)[C@@H]1CCc2c(Cl)nc(NCc3cccc(C4CC4)c3)c(=O)n21 [Compound 133, (S)-N-((1H-pyrrolo[3,2-c]pyridin-2-yl)methyl)-1-chloro-3-((3-cyclopropylbenzyl)amino)-4-oxo-4,6,7,8-tetrahydropyrrolo[1,2-a]pyrazine-6-carboxamide] | 2.5 to 10 µM | < 0.5 µM
CC[C@H]1C[C@@H](C(=O)NCc2ccc(N)nc2C)n2c1c(Cl)nc(NCc1ccccc1)c2=O [Compound 134, (6S,8S)-N-((6-amino-2-methylpyridin-3-yl)methyl)-3-(benzylamino)-1-chloro-8-ethyl-4-oxo-4,6,7,8-tetrahydropyrrolo[1,2-a]pyrazine-6-carboxamide] | 0.5 to 2.5 µM | < 0.5 µM
Cc1nc(N)ccc1CNC(=O)[C@H]1CCc2c(Cl)nc(NCc3ccccc3)c(=O)n21 [Compound 135, (R)-N-((6-amino-2-methylpyridin-3-yl)methyl)-3-(benzylamino)-1-chloro-4-oxo-4,6,7,8-tetrahydropyrrolo[1,2-a]pyrazine-6-carboxamide] | 2.5 to 10 µM | < 0.5 µM
Cc1nc(N)ccc1CNC(=O)[C@@H]1CCc2c(Cl)nc(NCc3cccnc3)c(=O)n21 [Compound 136, (S)-N-((6-amino-2-methylpyridin-3-yl)methyl)-1-chloro-4-oxo-3-((pyridin-3-ylmethyl)amino)-4,6,7,8-tetrahydropyrrolo[1,2-a]pyrazine-6-carboxamide] | 0.5 to 2.5 µM | < 0.5 µM
COc1cc(C)cc(CNc2ncc3n(c2=O)[C@H](C(=O)NCc2cc4cnc(C)cc4[nH]2)C[C@@H]3Cc2ccccc2)c1 [Compound 137, (6S,8S)-8-benzyl-3-((3-methoxy-5-methylbenzyl)amino)-N-((6-methyl-1H-pyrrolo[3,2-c]pyridin-2-yl)methyl)-4-oxo-4,6,7,8-tetrahydropyrrolo[1,2-a]pyrazine-6-carboxamide] | > 25 µM | < 0.5 µM
COc1cc(C)cc(CNc2ncc3n(c2=O)[C@H](C(=O)NCc2ccc(N)nc2C)C[C@@H]3Cc2ccccc2)c1 [Compound 138, (6S,8S)-N-((6-amino-2-methylpyridin-3-yl)methyl)-8-benzyl-3-((3-methoxy-5-methylbenzyl)amino)-4-oxo-4,6,7,8-tetrahydropyrrolo[1,2-a]pyrazine-6-carboxamide] | < 0.5 µM | < 0.5 µM
Cc1cc2[nH]c(CNC(=O)[C@@H]3C[C@H](Cc4ccccc4)c4cnc(NC5CCC5)c(=O)n43)cc2cn1 [Compound 139, (6S,8S)-8-benzyl-3-(cyclobutylamino)-N-((6-methyl-1H-pyrrolo[3,2-c]pyridin-2-yl)methyl)-4-oxo-4,6,7,8-tetrahydropyrrolo[1,2-a]pyrazine-6-carboxamide] | 10 to 25 µM | < 0.5 µM
COc1cc(C)cc(CNc2ncc3n(c2=O)[C@H](C(=O)NCc2cc4cnccc4[nH]2)C[C@@H]3Cc2ccccc2)c1 [Compound 141, (6S,8S)-N-((1H-pyrrolo[3,2-c]pyridin-2-yl)methyl)-8-benzyl-3-((3-methoxy-5-methylbenzyl)amino)-4-oxo-4,6,7,8-tetrahydropyrrolo[1,2-a]pyrazine-6-carboxamide] | 0.5 to 2.5 µM | < 0.5 µM
O=C(NCc1cc2cnccc2[nH]1)[C@@H]1C[C@H](Cc2ccccc2)c2cnc(NC3CCC3)c(=O)n21 [Compound 142, (6S,8S)-N-((1H-pyrrolo[3,2-c]pyridin-2-yl)methyl)-8-benzyl-3-(cyclobutylamino)-4-oxo-4,6,7,8-tetrahydropyrrolo[1,2-a]pyrazine-6-carboxamide] | 2.5 to 10 µM | < 0.5 µM
O=C(NCc1cc2cnccc2[nH]1)[C@@H]1CCc2c(Cl)nc(NCc3cccc(-c4ccccc4)c3)c(=O)n21 [Compound 143, (S)—N-((1H-pyrrolo[3,2-c]pyridin-2-yl)methyl)-3-(([1,1′-biphenyl]-3-ylmethyl)amino)-1-chloro-4-oxo-4,6,7,8-tetrahydropyrrolo[1,2-a]pyrazine-6-carboxamide] | > 25 µM | < 0.5 µM
